In experiment [1] the target is Prothrombin (Homo sapiens, UniProt P00734). The experiment can be described thus: Inhibitory activity against thrombin IIa.
The target of experiment [2] is Tissue-type plasminogen activator (Homo sapiens, UniProt P00750). Kind of experiment: Inhibitory activity against Tissue plasminogen activator.
Experiment [3] is filed under the species Homo sapiens. The experiment can be described thus: Concentration of inhibitor in human plasma required to double the activated partial thromboplastin time. Type of experiment: functional.
In experiment [4] the target is Serine protease 1 (Homo sapiens, UniProt P07477). The experiment can be described thus: Inhibitory activity against human trypsin.

pKi: −log10 of the molar value.

Tissue-type plasminogen activator, sequence (P00750 whole entry): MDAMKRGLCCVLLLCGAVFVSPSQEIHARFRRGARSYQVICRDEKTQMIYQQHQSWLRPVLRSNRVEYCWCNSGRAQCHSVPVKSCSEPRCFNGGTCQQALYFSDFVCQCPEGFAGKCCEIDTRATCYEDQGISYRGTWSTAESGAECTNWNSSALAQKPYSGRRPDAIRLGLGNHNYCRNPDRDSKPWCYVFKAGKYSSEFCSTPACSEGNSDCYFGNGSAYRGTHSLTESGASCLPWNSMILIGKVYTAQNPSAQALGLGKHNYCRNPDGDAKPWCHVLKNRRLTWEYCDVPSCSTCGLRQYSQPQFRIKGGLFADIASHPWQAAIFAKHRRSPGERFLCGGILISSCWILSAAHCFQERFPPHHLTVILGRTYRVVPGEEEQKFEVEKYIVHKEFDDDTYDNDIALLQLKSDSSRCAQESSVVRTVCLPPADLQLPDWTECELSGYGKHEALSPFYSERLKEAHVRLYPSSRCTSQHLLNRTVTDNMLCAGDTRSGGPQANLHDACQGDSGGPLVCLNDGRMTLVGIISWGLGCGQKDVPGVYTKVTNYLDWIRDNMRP
Serine protease 1, sequence (P07477 whole entry): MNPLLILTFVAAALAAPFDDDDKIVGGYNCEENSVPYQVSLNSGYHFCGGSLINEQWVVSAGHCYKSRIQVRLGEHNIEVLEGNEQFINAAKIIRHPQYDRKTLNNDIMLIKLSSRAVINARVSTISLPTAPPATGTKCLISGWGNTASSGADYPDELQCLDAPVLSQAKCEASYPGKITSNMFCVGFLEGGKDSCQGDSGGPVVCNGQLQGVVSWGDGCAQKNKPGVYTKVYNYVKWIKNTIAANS

One may read the pKi as the Ki on a negative log10 scale, so that one unit is a factor of ten. The low end stands for a high Ki, the high end for a low Ki. Take `O=C1COc2ccc(Cl)cc2CNC(=O)[C@@H]2CCCN2C(=O)[C@@H](C2CCCCC2)NC(=O)CN1`: the pKi in experiment [1] is 8.54; in experiment [2] it was 5.25; in experiment [4], 5.03. In addition, the “2*APTT” value in experiment [3] came to 0.69 µM.
Turning to `O=C1Cn2c(Cl)cnc(c2=O)N[C@@H](Cc2ccccc2)CNCCCCOc2ccc(Cl)cc2CN1`, the pKi was 9.70 in experiment [1], 7.70 in experiment [2] and 7.05 in experiment [4]. Moreover, the “2*APTT” value in experiment [3] came to 0.74 µM.
On to `O=C1Cn2c(Cl)cnc(c2=O)N[C@@H](Cc2ccccc2)CNCCOc2ccc(Cl)cc2CN1`, for which the negative logarithm of the Ki (pKi) in experiment [1] is 6.25.
Take `O=C1Cn2c(Cl)cnc(c2=O)N[C@@H](Cc2ccccc2)NCCCCCCOc2ccc(Cl)cc2CN1`: the negative logarithm of the Ki (pKi) in experiment [1] is 9.89; in experiment [4], 6.62. The “2*APTT” value in experiment [3] is 3.17 µM.
`O=C1Cn2c(Cl)cnc(c2=O)N[C@@H](Cc2ccccc2)CNCCCNCCc2ccccc2CN1`: the pKi is 6.19 in experiment [2] and 5.68 in experiment [4]. For the same compound, in experiment [3], the “2*APTT” value worked out at 0.47 µM.
For `O=C1Cn2c(Cl)cnc(c2=O)N[C@@H](Cc2ccccc2)CNCCCCCOc2ccccc2CN1`, the pKi in experiment [1] is 8.60; in experiment [2], 6.44; in experiment [4], 5.17. Also, the “2*APTT” value in experiment [3] stood at 0.6 µM.
As to `O=C1Cn2c(Cl)cnc(c2=O)N[C@@H](Cc2ccccc2)CNCCCCNCc2ccccc2CN1`, the negative-log Ki (pKi) in experiment [1] was 9.29; in experiment [2], 3.78; in experiment [4], 4.39. Also, the “2*APTT” value in experiment [3] stood at 0.43 µM.
`O=C1Cn2c(Cl)cnc(c2=O)N[C@@H](Cc2ccccc2)CNCCCOc2ccc(Cl)cc2CN1` gave a pKi in experiment [1] of 7.59.
Turning to `CCN(CC)C(=O)CN[C@H](C(=O)N1CCC[C@H]1C(=O)NCc1cc(Cl)ccc1Cl)C1CCCCC1`, in experiment [1], the negative-log Ki (pKi) was 9.51.
`O=C1Cn2c(Cl)cnc(c2=O)N[C@@H](Cc2ccccc2)CNCCCCCOc2ccc(Cl)cc2CN1`: the values for the negative-log Ki (pKi) in experiment [1], in experiment [2] and in experiment [4] were 10.30, 8.22 and 7.10, respectively. Also, the “2*APTT” value in experiment [3] turned out to be 1.22 µM.
With `CN1CCCCCOc2ccc(Cl)cc2CNC(=O)Cn2c(Cl)cnc(c2=O)N[C@@H](Cc2ccccc2)C1`, the pKi in experiment [1] is 10.70; in experiment [2] it was 8.52; in experiment [4], 7.40. Also, in experiment [3], the “2*APTT” value amounted to 1.89 µM.
As to `O=C1COc2ccc(Cl)cc2CNC(=O)[C@@H]2CCCN2C(=O)[C@@H](C2CCCCC2)NC(=O)CCCN1`, the pKi in experiment [1] is 9.40; in experiment [2], 5.37; in experiment [4], 5.30. In addition, the “2*APTT” value in experiment [3] was determined as 0.31 µM.
For the compound `O=C1Cn2c(Cl)cnc(c2=O)N[C@@H](Cc2ccccc2)CNC(=O)OCCCCOc2ccc(Cl)cc2CN1`, the negative logarithm of the Ki (pKi) in experiment [1] was 9.20; in experiment [4], 5.40. The “2*APTT” value in experiment [3] is 1.97 µM.
`O=C1COc2ccc(Cl)cc2CNC(=O)[C@@H]2CCCN2C(=O)C(C2CCCCC2)NC(=O)CCN1` (some centres undefined): the values for the pKi in experiment [2] and in experiment [4] were 5.05 and 4.67, respectively. The “2*APTT” value in experiment [3] stood at 0.36 µM.
`N[C@H](C(=O)N1CCC[C@H]1C(=O)NCc1cc(Cl)ccc1Cl)C1CCCCC1` showed a pKi in experiment [1] of 8.30.
Regarding `O=C1Cn2c(Cl)cnc(c2=O)N[C@@H](Cc2ccccc2)CNC(=O)OC/C=C/COc2ccc(Cl)cc2CN1`, the figures for the pKi in experiment [1], in experiment [2] and in experiment [4] were 9.77, 6.32 and 6.24, respectively. In addition, the “2*APTT” value in experiment [3] came out at 0.87 µM.
The like results for `O=C1Cn2c(Cl)cnc(c2=O)N[C@@H](Cc2ccccc2)CNC(=O)OC/C=C\COc2ccc(Cl)cc2CN1` were, in that order, 10.22, 8.22, 6.96 and 0.78 µM.
For `O=C1Cn2c(Cl)cnc(c2=O)N[C@@H](Cc2ccccc2)CNCCOCCOc2ccc(Cl)cc2CN1`, in that order: 10.30, 6.82, 6.96 and 0.56 µM.
For `O=C1COc2ccc(Cl)cc2CNC(=O)[C@@H]2CCCN2C(=O)[C@@H](C2CCCCC2)NC(=O)CCCCN1`, in that order: 8.89, 4.32, 5.11 and 0.36 µM.
As to `O=C1Cn2c(Cl)cnc(c2=O)N[C@@H](Cc2ccccc2)CNCCOCCOc2ccccc2CN1`, the pKi in experiment [1] was 8.68; in experiment [2] it was 5.49; in experiment [4] it was 5.34. Besides, the “2*APTT” value in experiment [3] is 0.39 µM.
Regarding `CN1CCOc2ccccc2CNC(=O)Cn2c(Cl)cnc(c2=O)N[C@@H](Cc2ccccc2)CNC(=O)C1`, the figures for the pKi in experiment [1], in experiment [2] and in experiment [4] were 8.52, 5.41 and 4.77, respectively. Also, the “2*APTT” value in experiment [3] is 0.5 µM.
`CCNC(=O)Oc1ccc(Cl)cc1CNC(=O)[C@@H]1CCCN1C(=O)[C@@H](N)C1CCCCC1` had a pKi in experiment [1] of 9.13.

Values taken from ChEMBL document CHEMBL1136169, “Design and synthesis of potent and selective macrocyclic thrombin inhibitors” (Bioorg Med Chem Lett, 2003).
